Measurements taken from US20100179225A1, “POI Prevention” (CYTOKINE PHARMASCIENCES, INC., priority 2008, published 2010).

Columns and labels:
nitric oxide in serum = assay: Nitrite and nitrate in serum after small intestinal transplantation (Nitrate/Nitrite Colorimetric Assay kit); assay type: in vivo, Lewis rats; details: 1 mg/kg i.v.
Description: (§1) Syngeneic orthotopic small intestinal transplantation was performed in Lewis rats as previously described (Schwarz N T, Nakao A, Nalesnik M A, Kalff J C, Murase N, Bauer A J. Protective effects of ex vivo graft radiation and tacrolimus on syngeneic transplanted rat small bowel motility. Surgery 2002; 131: 413-423). […] Then the graft vascular bed was perfused with chilled UW solution (University of Wisconcin) and the intestinal lumen was irrigated with 50 ml cold 0.9% NaCl solution containing […]. neomycin sulfate (Uro Nebacetin N, Nycomed, Germany). The graft was stored in cold UW solution during the preparation of the recipient. An end-to-side anastomosis between the graft aorta and the recipient infra-renal aorta, and between the graft vein and recipient vena cava, was performed. Approximately 80% of the recipient intestine was removed and enteric continuity was restored by proximal and distal end-to-end intestinal anastomoses.
(§2) To investigate the effect of CPSI-2364 on postoperative small bowel ischemia/reperfusion injury and muscular function, CPSI-2364 (1 mg/kg bodyweight, solved in 2.5% mannitol) or vehicle (2.5% mannitol) were administered intravenously once to the donor and the recipient 90 minutes before the beginning of the organ retrieval operation as well as the transplantation procedure that was described above. […]

IL-6 = assay: Serum IL-6 after small intestinal transplantation (ELISA); assay type: in vivo, Lewis rats; details: 1 mg/kg i.v.
Description: as §1, §2

JNK/SAPK = details: v-myc immortalized spleen derived macrophage cell line; Lowenberg et al. J Immunol 2005; cited from earlier work

C/C(=N\NC(=N)N)c1cc(NC(=O)CCCCCCCCC(=O)Nc2cc(/C(C)=N/NC(=N)N)cc(/C(C)=N/NC(=N)N)c2)cc(/C(C)=N/NC(=N)N)c1 [Semapimod]
nitric oxide levels within the serum (nitric oxide in serum; 3 hours after reperfusion): 0.17 µmol/L
nitric oxide levels within the serum (nitric oxide in serum; 18 hours after reperfusion): 1.69 µmol/L
release of IL-6 (serum) (IL-6; after 3 hours): 345 pg/mL
release of IL-6 (serum) (IL-6; after 18 hours): 35 pg/mL
JNK/SAPK phosphorylation (JNK/SAPK): reduce JNK/SAPK phosphorylation
